Experimental data reported in US20260139006A1, “CYCLIC PEPTIDE AS INHIBITORS OF FREE-LIVING AMOEBA” (Purdue Research Foundation, priority 2024, published 2026).

Assay: Mammalian cytotoxicity counter screening (CellTiter-Glo)
Type: cell-based
Conditions: human; read-out: A549 IC50 (cytotoxicity)
Description: Cytotoxicity of the cyclic peptides was also determined by using the CellTiter-Glo 2.0® assay on A549 human lung carcinoma cells. A549 cells were seeded at a concentration of 1.6×10^4 cells/mL in 96-well plates in the presence of serially diluted compounds, as described above. DMSO (1%) and 100 μM of chlorhexidine were used as the negative and positive controls. A549 were grown in F12K medium supplemented with 10% FBS and 1% penicillin/streptomycin antibiotics. […] The total volume of each well was 100 μL, containing 10 μL compounds and 90 μL cells, and plates were incubated at 37° C., 5% CO2 for 72 hours. At the 72-hours time point, CellTiter-Glo 2.0 Reagent® was added to all the wells and read by the SpectraMax® i3X plate reader as described above. Curve fitting using non-linear regression was carried out using the average of replicates and the Levenberg-Marquardt algorithm, using DMSO as the normalization control, as defined in CDD Vault. The selectivity index (SI) was calculated by using the equation: SI=(IC50 of A549's)/(IC50 of Balamuthia mandrillaris) to determine the specificity of inhibitors.

N=C(N)c1ccc(OCCCCCOc2ccc(C(=N)N)cc2)cc1 [pentamidine]
IC50 at 72 h: 12.8 µM
